Key:
PKM2 = experiment: PKM enzymatic activity (colorimetric kit) in treated ImKCs; format: cell-based, mouse; conditions: parental ImKCs, 50 nM, β-arrestin2-dependent
Description: Data are presented as the mean±sd (n=4). […] Data are presented as the mean±sd (n=6).
FIGS. 29A-29B show comparison of DPI's effect on glycolysis in wild-type and Pkm^−/− BMDMs. […] FIGS. 29C-29D show activation of PKM2 and GAPDH enzymatic activity by DPI is inhibited by ERK1/2 inhibitor. ImKCs were treated with DMSO or DPI alone (500 nM) or DPI plus ERK1/2 inhibitor (SCH772984, […]) for 6 hrs and the enzymatic activities of PKM2 (c) and GAPDH (d) were measured by colorimetric assay kits (Biovision). Data are presented as the mean±sd (n=6).
The enzymatic activities of PKM and GAPDH were measured using the pyruvate kinase activity assay kit (Biovision, #K709) and GAPDH activity assay kit (Biovision, #K680) according to the manufacturer's protocols, respectively.

[1] = system: mouse bone marrow macrophages (BMMs); experiment: Development and function of TAM/M2-like macrophages in vitro (qPCR, flow cytometry); format: cell-based
Description: DEGs were identified by edgeR at P<0.05 with at least 2 fold-change. Data for genes that were not classified as differentially expressed are plotted in black. […] Mouse BMMs were cultured in normal medium with or without 2.5 μM thiostrepton for 24 hrs (group 1), or cultured in B16F10 tumor cell conditioned medium (CM) with or without 2.5 μM thiostrepton for 24 hrs (group 2), or cultured with B16F10 tumor cell CM for 24 hrs first and then treated with 2.5 μM thiostrepton for another 24 hrs (group 3). The transcript levels of the indicated genes were quantified by qPCR. Data were summarized from two independent experiments. […] Mouse BMMs were treated with thiostrepton for 24 hrs. Untreated and treated macrophages were co-cultured with equal number of B16F10 melanoma cells for 12 hrs. The number of tumor cells were quantified by flow cytometry after subtracting macrophages from total number of cells. Data were summarized from three independent experiments. ** P<0.01 by T-test.
Expression of MHCII, CD80, iNOS, Arg1 and CD206 were quantified by flow cytometry. Shown are representative staining profiles of treated (red) and untreated (dark) TAMs from two independent experiments. […] Alternatively, mouse BMMs were polarized with IL-4/IL-13 (group 3) or lactic acid (group 5) for 24 hrs first and then either not treated or treated with […] thiostrepton for another 24 hrs. The transcript levels of the indicated genes were quantified by qPCR. Data are summarized from two independent experiments.
Mouse BMMs were not treated or treated with […] thiostrepton for 24 hours in normal medium (group 1) or in the presence of IL4/IL13 (group 2), or mouse BMMs were polarized with IL4/IL13 for 24 hours and then either not treated or treated with […] thiostrepton for 24 hours (group 3). RNA was isolated and the transcript levels of the indicated genes were quantified by PCR. Data, shown as mean±s.d., were summarized from two independent experiments. * P<0.05 and ** P<0.01 by T-test. […] Data are shown as mean±s.e.m. FIGS. 19C-19D show flow cytometry analysis of TAM (F4/80^+CD11b^+Ly6C^−Ly6G^−), inflammatory monocytes (F4/80′^intCD11b^+Ly6C^+Ly6G^−) and monocytes (F4/80^−CD11b^+Ly6C^+Ly6G^+) in the tumors of mice treated with DMSO, TA99, cucurbitacin I, and cucurbitacin I plus TA99 18 days after tumor engraftment. Shown are representative F4/80 versus CD11b staining profiles gating on CD45+ cells and MHCII histograms gating on macrophages from c.
Mouse bone marrow-derived macrophages (mBMM) were prepared as described previously^54. Briefly, fresh bone marrow cells were isolated from B6 mice. Cells were plated into 6-well plate with 1×10^6/mL in complete RPMI with 2-mercaptoethanol and cultured for 6 days with fresh medium change every 2 days. mBMMs were differentiated to resemble TAMs in the presence of 10 ng/mL mIL-4 and mIL-13 (Peprotech) or 25 mM lactate acid for 24 hrs or tumor conditioned medium (CM). To prepare CM, 70% confluent B16F10 cultured were replaced with fresh medium and the tumor medium was collected and filtered ([…]) 24 hrs later. The mixture of 3 volumes of tumor medium with 1 volume of complete RPMI for mBMM serves as the CM. Expression of Arg, Fizz1 and Vegfa were quantified by qPCR to assess the development of TAMs. Other genes of Tnf, Il1b, Nos2, Cxcl2, Ccl5, Ym1 and Tgfb serve as macrophage activating markers. To assay the tumor growth inhibition, mBMMs (10,000 cells per well in 96 well plate) were treated with thiostrepton for 24 hrs and then cocultured with equal number of B16 melanoma cells in fresh complete RPMI for 12 hrs. The conditioned medium treated or not treated with thiostrepton were collected and filtered. The numbers of B16 melanoma cells were cultured for 12 hrs with conditioned medium or conditioned medium heated at 95° C. for 5 min. Tumor cells were quantified by flow cytometry to determine the macrophage-dependent killing function. […]

[2] = Macrophage numbers and gut bacterial counts in non-tumor bearing mice; format: in vivo, mouse
Description: (n=3). Shown are representative F4/80 versus CD11b staining profiles gating on CD45+ cells. I.P.: intraperitoneal injection; S.C.: paratumor subcutaneous injection. […] Data shown are mean±s.d. n.s., not significant by T-test.
Next, we examined whether thiostrepon has anti-tumor effect in vivo through activating macrophages. B16F10 melanoma cells were injected subcutaneously into syngeneic C57BL/6 mice. 6 and 12 days later, tumor-bearing mice were treated with either vehicle (DMSO), melanoma specific antibody TA99, thiostrepton, or combination of TA99 and thiostrepton by intraperitoneal injection (I.P.). […] Since thiostrepton inhibits cell proliferation and is an antibiotic, to exclude its systematic effects on immune cells and on gut microbiome, tumor-bearing mice were treated by para-tumor subcutaneous injection (S.C.) with a lower dose of thiostrepton (20 mg/kg). […] Consistently, more abundant macrophages were stained positive for F4/80 by immunochemistry in tumor sections from mice treated with thiostrepton or thiostrepton plus TA99 than mice treated with vehicle or T99 (FIG. 6E).

[3] = BMMs in B16F10 conditioned medium, 2.5 μM, 24 hrs, qPCR
[4] = BMMs in B16F10 conditioned medium, flow cytometry
[5] = IL-4/IL-13 and lactic acid-polarized BMMs, qPCR

Compound: c1ccc2c(c1)[I+]c1ccccc1-2 [Diphenyleneiodonium chloride]
- PKM2 enzymatic activity (PKM2): immediate increase

Compound: C=C(NC(=O)C(=C)NC(=O)c1csc(C2=N[C@@H]3c4csc(n4)[C@H]4NC(=O)c5csc(n5)[C@H]([C@](C)(O)[C@@H](C)O)NC(=O)[C@H]5CSC(=N5)/C(=C/C)NC(=O)[C@H]([C@@H](C)O)NC(=O)c5csc(n5)[C@]3(CC2)NC(=O)[C@H](C)NC(=O)C(=C)NC(=O)[C@H](C)NC(=O)[C@H]([C@@H](C)CC)N[C@@H]2C=Cc3c([C@H](C)O)cc(nc3[C@H]2O)C(=O)O[C@@H]4C)n1)C(N)=O [Thiostrepton]
- expression of M1-associated genes Tnf, Il1b, Cxcl2 and Nos2 [1, 3]: up-regulated
- expression of TAM/M2-associated genes Arg1, Fizz1, Vegfa, Ym1 and Tgfb [1, 3]: inhibited
- ARG1 [1, 4]: down-regulation
- MHCII, CD80 and iNOS [1, 4]: up-regulation
- expression of Arg1, Fizz1, Ym1 and Tgfb [1, 5]: inhibited
- expression of Tnf, Il1b, Cxcl2 and Ccl5 [1, 5]: elevated
- total bacterial counts in the gut ([2]; both dosing strategies): did not change
- macrophages in the spleen and bone marrow ([2]; intraperitoneal administration): increased numbers
- macrophage numbers ([2]; subcutaneous administration): did not have significant effects
